Patent US7314888B1, “Compounds and medicinal use thereof” (Toyama Chemical Co., Ltd., priority 1998, dated 2008)
Blank lines part the entries; values can stand above or below the compound they belong to.

Biological target: T1, AP-1 complex (Fos/Jun peptide) (Homo sapiens, UniProt P01100+P05412)
T1 construct: made in house; host or cells: chemical peptide synthesis (no expression host)
Assay: Activities on AP-1 binding reaction to recognition sequence (ELISA) using Fos/Jun peptide
Settings: read-out: Inhibition rate %
Description: Activities on AP-1 Binding Reaction to Recognition Sequence (ELISA)
On the other hand, Jun peptide and N-terminal biotinylated tetraglycine Fos peptide containing a DNA-binding site [Nature, Vol. 373, Pages 257-261, 1995] were synthesized and separately dissolved in tris buffer (20 mM tris-hydrochloride (pH 7.5), 50 mM potassium chloride, 1 mM ethylenediaminetetraacetic acid, 10 mM magnesium chloride, 1 mM dithiothreitol, 0.5M guanidine hydrochloride, 30% glycerol). Equimolar quantities of both the solutions were mixed together, and the mixture was used as an AP-1 complex (Fos/Jun peptide). The AP-1 complex was added to avidin-coating 96-well ELISA plate (10 pmol/well), washed, and then blocked with bovine serum albumin. The product was used for binding assay using AP-1 complex.
On the basis of the above-mentioned two coated AP-1, a digoxigenin-labeled double stranded oligonucleotide (22-mer) containing an AP-1 binding sequence ([…]) which has been synthesized elsewhere was reacted in the presence and absence of a sample at room temperature for 30-60 minutes in a binding reaction solution [Hepes buffer or 25 mM tris-hydrochloric acid (pH 7.9), 0.5 mM ethylenediaminetetraacetic acid, 0.05% Nonidet P-40, 10% glycerol]. After of the reaction, unbound labeled oligonucleotide washed out with Hepes buffer solution containing 0.05% of Tween-20. Then, an anti-digoxigenin antibody labeled with peroxidase was added, and reacted with the labeled oligonucleotide bound to AP-1. After washing out the excessive antibody with Hepes buffer containing 0.05% of Tween-20, the residue was reacted for a predetermined period of time in a 100 mM citrate buffer (pH 5.0) containing hydrogen peroxide by using o-phenylenediamine as a substrate. After adding-sulfuric acid solution to each well, absorbance (492 nm) was measured. Taking the absorbance in the absence of sample as 100%, inhibition rate of sample was calculated from the absorbance in the presence of sample.

T1 sequence (P01100 137-200 limits assumed): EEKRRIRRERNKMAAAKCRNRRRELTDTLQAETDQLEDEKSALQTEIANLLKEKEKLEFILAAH
T1 sequence (P05412 252-315 limits assumed): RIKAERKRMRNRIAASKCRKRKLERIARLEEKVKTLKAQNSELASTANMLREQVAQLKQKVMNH

SMILES: CC(C)COc1ccc(C(=O)c2ccc(OCC(C)C)c(C(=O)NCC(=O)O)c2)c(OCC(C)C)c1 [Example 57, 2-{[5-(2,4-diisobutoxybenzoyl)-2-isobutoxybenzoyl]amino}-acetic acid]
inhibition at 200 µM: 13%
inhibition at 500 µM: 62%

SMILES: CC(C)COc1ccc(C(O)c2ccc(OCC(C)C)c(C=CC(=O)O)c2)c(OCC(C)C)c1 (stereo not shown) [Example 14, 3-[5-[(2,4-diisobutoxyphenyl)(hydroxy)methyl]-2-isobutoxyphenyl]-2-propenoic acid]
inhibition at 200 µM: 21%
inhibition at 500 µM: 90%

SMILES: CC(C)COc1ccc(C(=O)c2ccc(OCC(C)C)c(OCC(C)C)c2)cc1CCC(=O)O [Example 47, 3-[5-(3,4-diisobutoxybenzoyl)-2-isobutoxyphenyl]-propanoic acid]
inhibition at 200 µM: 35%
inhibition at 500 µM: 92%

SMILES: CC(C)COc1ccc(C(=O)c2ccc(OCC(C)C)c(CCC(=O)O)c2)c(O)c1 [Example 38, 3-[5-(2-hydroxy-4-isobutoxybenzoyl)-2-isobutoxyphenyl]-propanoic acid]
inhibition at 200 µM: 18%
inhibition at 500 µM: 91%

SMILES: CC(C)COc1ccc(C(=O)c2ccc(OCC(C)C)c(C(=O)O)c2)c(OCC(C)C)c1 [Example 8, 5-(2,4-diisobutoxybenzoyl)-2-isobutoxybenzoic acid]
inhibition at 200 µM: 9%
inhibition at 500 µM: 20%

inhibition at 200 µM: 29%
inhibition at 500 µM: 72%
SMILES: CC(C)CCOc1ccc(C(=O)c2cc(C(=O)CC(C)C)cn2CCC(C)C)cc1CCC(=O)O [Example 88, 3-[5-{[1-isopentyl-4-(3-methylbutanoyl)-1H-pyrrol-2-yl]carbonyl}-2-(isopentyloxy)phenyl]propanoic acid]

SMILES: CC(C)COc1ccc(C(=O)c2ccc(OCC(C)C)c(CCC(=O)NS(C)(=O)=O)c2)c(OCC(C)C)c1 [Example 58, N-{3-[5-(2,4-diisobutoxybenzoyl)-2-isobutoxyphenyl]propanoyl}methanesulfonamide]
inhibition at 200 µM: 22%
inhibition at 500 µM: 88%

SMILES: CC(C)COc1ccc(C(O)c2ccc(OCC(C)C)c(CCC(=O)O)c2)c(OCC(C)C)c1 (stereo not shown) [Example 15, 3-{5-[(2,4-diisobutoxyphenyl)(hydroxy)methyl]-2-isobutoxyphenyl}propionic acid]
inhibition at 200 µM: 19%
inhibition at 500 µM: 64%

SMILES: CC(C)COc1ccc(Cc2ccc(OCC(C)C)c(CC(=O)O)c2)c(OCC(C)C)c1 [Example 16, 2-[5-(2,4-diisobutoxybenzyl)-2-isobutoxyphenyl]acetic acid]
inhibition at 200 µM: 21%
inhibition at 500 µM: 65%

SMILES: CC(C)COc1ccc(C(=O)c2ccc3c(c2)cc(C(=O)O)n3CC(C)C)c(OCC(C)C)c1 [Example 82, 5-(2,4-diisobutoxybenzoyl)-1-isobutyl-1H-indole-2-carboxylic acid]
inhibition at 200 µM: 28%
inhibition at 500 µM: 97%

SMILES: CC(C)COc1ccc(C(=O)c2ccc(OCC(C)C)c(OCC(=O)O)c2)c(OCC(C)C)c1 [Example 53, 2-[5-(2,4-diisobutoxybenzoyl)-2-isobutoxyphenoxy]acetic acid]
inhibition at 200 µM: 30%
inhibition at 500 µM: 79%

SMILES: CC(C)COc1ccc(OCC(C)C)c(C(=O)c2ccc(OCC(C)C)c(CCC(=O)O)c2)c1 [Example 43, 3-[5-(2,5-diisobutoxybenzoyl)-2-isobutoxyphenyl]-propanoic acid]
inhibition at 200 µM: 28%
inhibition at 500 µM: 72%

SMILES: CC(C)COc1ccc(C(O)c2ccc(OCC(C)C)c(CC(=O)O)c2)c(OCC(C)C)c1 (stereo not shown) [Example 9, 2-{5-[(2,4-diisobutoxyphenyl)(hydroxy)methyl]-2-isobutoxyphenyl}-acetic acid]
inhibition at 200 µM: 23%
inhibition at 500 µM: 37%

SMILES: CC(C)COc1ccc(C(NS(C)(=O)=O)c2ccc(OCC(C)C)c(CCC(=O)O)c2)c(OCC(C)C)c1 (stereo not shown) [Example 73, 3-(5-{(2,4-diisobutoxyphenyl)[(methylsulfonyl)amino]methyl}-2-isobutoxyphenyl)propanoic acid]
inhibition at 200 µM: 18%
inhibition at 500 µM: 74%
